Measurements reported in article PMC12888861, “Antibacterial activity of enmetazobactam against Acinetobacter spp.: a molecular dissection of mechanism of action and resistance determinants” (Antimicrobial Agents and Chemotherapy, 2025).

Columns and labels:
OXA-23 [1] = target: T1, OXA-23 (Acinetobacter baumannii, UniProt Q9L4P2); assay: OXA-23 inhibition assay (nitrocefin hydrolysis IC50); type: biochemical; conditions: OXA-23; nitrocefin hydrolysis; 10 min preincubation at room temperature; read-out: IC50
T1 construct: GST (N); made in house; host or cells: Escherichia coli BL21
Procedure: (§1) The Michaelis-Menten constant (Km) was determined by fitting the data to the Michaelis-Menten equation, following established protocols ([38]). The kcat (hydrolysis rate constant of the β-lactamase) was obtained by linearization of the kinetic data ([39]). To assess the possible inhibitory capacity of enmetazobactam against the CHDLs of A. baumannii, specific OXA-23 inhibition kinetics assays were performed in a Nanoquant Infinite spectrophotometer (Tecan). […] Also, the dissociation constant (koff), which represents the rate at which the enzyme-inhibitor complex dissociates (i.e., the proportion of the enzyme-inhibitor complex that dissociates per unit of time), was determined through a jump-dilution assay that monitored OXA-23 activity recovery as the enzyme-inhibitor complex dissociated. OXA-23 (1 µM) was preincubated for 30 min at 37°C with excess of inhibitors (50× IC₅₀) to ensure full acyl-enzyme complex formation. Subsequently, the mixture was diluted 1:5,000 to allow gradual complex dissociation. […] Enzymatic activity, reflecting the progressive dissociation of the acyl-enzyme complex, was monitored spectrophotometrically at 490 nm for 8 h. The resulting progress curves were fitted using GraphPad Prism (GraphPad Software, MA, USA) to equation 1 to estimate koff, where V0 is the initial, inhibited enzyme velocity; Vs is the steady-state uninhibited enzyme velocity, and t is time.

OXA-23 [2] = target: T1, OXA-23; assay: Jump-dilution dissociation assay (koff, t1/2) with OXA-23; type: biochemical
Procedure: as §1
(1) P=Vs×t+(V0−Vs)×[1−exp^(−koff × t)]/koff

OXA-24/40 = conditions: cited from earlier work
[3] = test system: [H][C@@]12CC(=O)N1[C@@H](C(=O)[O-])[C@](C)(Cn1cc[n+](C)n1)S2(=O)=O; assay: purified protein, by the assay type; conditions: other: hydrolysis by OXA-23, 25°C, pH 7.4
Procedure: All kinetics measurements were performed in triplicate, at 25°C, in 20 mM NaHCO3 and 50 mM Na2HPO4 at pH 7.4.

[4] = test system: carbapenem-resistant CHDL-producing A. baumannii isolates (OXA-23, OXA-24/40, OXA-58); assay: Checkerboard synergy assay (FIC index); type: cell-based, Acinetobacter baumannii; conditions: checkerboard colistin x enmetazobactam, alone or in presence of the partner
Procedure: Checkerboard assays were performed to assess synergistic interactions between the cefepime/enmetazobactam combination and sulbactam, as well as between enmetazobactam alone and either sulbactam or colistin. […] The assays were conducted with three multidrug-resistant A. baumannii isolates from the Spanish Multicenter Collection, each producing a different OXA-type carbapenemase: OXA-23, OXA-24/40, or OXA-58. The FIC index was calculated and interpreted as follows: FICindex ≤ 0.5, synergy; FICindex > 0.5–4, no synergy; and FICindex > 4, antagonism ([33], [34]).

T1 sequence (Q9L4P2 18-273): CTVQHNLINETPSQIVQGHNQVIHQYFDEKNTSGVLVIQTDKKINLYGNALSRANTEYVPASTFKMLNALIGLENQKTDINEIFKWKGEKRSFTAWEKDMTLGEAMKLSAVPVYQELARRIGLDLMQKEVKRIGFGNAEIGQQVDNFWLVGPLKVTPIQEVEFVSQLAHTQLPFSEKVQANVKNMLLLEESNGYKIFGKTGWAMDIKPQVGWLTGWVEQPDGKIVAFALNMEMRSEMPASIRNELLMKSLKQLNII

In the case of `CC1=C[C@@H]2CN(C(=O)N2OS(=O)(=O)O)[C@@H]1C(N)=O` [durlobactam], the IC50 (OXA-23 [1]) is reported as 170 nM, the residence time (OXA-23 [2]; jump dilution) is reported as 412 ± 4 min and the koff (OXA-23 [2]; jump dilution 1:5,000) is reported as 2.8e-05 s⁻¹. For the same compound, the IC50 (OXA-24/40) was 190 nM.
Compound OXA-23 (Acinetobacter baumannii) has a Km [3] of 171.85 ± 55.78 µM, a kcat [3] of 0.177 ± 0.056 s⁻¹ and a kcat/Km [3] of 1030 M⁻¹ s⁻¹.
For colistin, the MIC ([4]; isolate Ab4 (OXA-23)) was 1 mg/L, the MIC ([4]; isolate Ab138 (OXA-58)) was 1 mg/L and the MIC ([4]; isolate Ab180 (OXA-24/40)) was 0.25 mg/L.
